What is called IC50 is the point on the concentration scale where inhibition reaches its midpoint. Low readings indicate greater potency in that assay, high ones weaker potency in that assay.

Sequence of IRE1α (O75460 547-977 D688N): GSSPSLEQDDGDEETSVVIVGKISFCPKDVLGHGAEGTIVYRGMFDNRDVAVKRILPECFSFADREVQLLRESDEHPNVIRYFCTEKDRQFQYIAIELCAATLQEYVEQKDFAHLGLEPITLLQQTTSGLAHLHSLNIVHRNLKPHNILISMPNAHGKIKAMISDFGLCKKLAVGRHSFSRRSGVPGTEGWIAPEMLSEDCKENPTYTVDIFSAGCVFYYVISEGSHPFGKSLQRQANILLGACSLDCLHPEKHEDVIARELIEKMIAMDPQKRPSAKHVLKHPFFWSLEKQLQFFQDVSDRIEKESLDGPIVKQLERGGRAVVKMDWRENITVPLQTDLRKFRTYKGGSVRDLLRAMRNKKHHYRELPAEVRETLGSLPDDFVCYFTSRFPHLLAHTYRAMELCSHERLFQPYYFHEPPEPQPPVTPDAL

For this experiment, the target named is IRE1α (Homo sapiens (Human), UniProt O75460, D688N). As to the kind of experiment: IRE1α TR-FRET competition binding assay (IRE1α HTRF). Conditions: TR-FRET competition binding to kinase domain of IRE1α. As to the method:
IRE1α TR-FRET Competition Binding Assay. The affinity of compound binding to the kinase domain of IRE1α was determined using a time-resolved fluorescence resonance energy transfer (TR-FRET) competition assay.
The purified protein (final concentration 0.25 nM) was pre-incubated with anti-His Europium labeled antibody (Life Technologies PV5596, final concentration 2 nM) for one hour at 4° C. in TR-FRET Assay Buffer (50 mM HEPES, pH 7.5, 10 mM MgCl2, 0.083 mM Brij 35, 1 mM DTT, and 0.1% bovine gamma globulin) prior to addition to test compounds. An Alexa fluor 647-labeled probe based on an ATP competitive inhibitor was added to a final concentration of 2 nM. Reactions were carried out for one hour at room temperature in a final volume of 20 μL in 384 well white ProxiPlates (Perkin Elmer 6008289). Binding of the probe to the IRE1α protein was detected in an Envision instrument (PerkinElmer) equipped with a TRF laser option and a LANCE/Delfia Dual/Bias D400/D630 mirror (Ex 347 nm, 1st Em 665 nm, 2nd Em 615 nm).
On the technique in general: TR-FRET usually uses a lanthanide donor and a delayed reading to cut background.
For `CC(C)n1c(=O)c(-c2cc(F)c(NS(=O)(=O)CCC(F)(F)F)c(F)c2)nc2cnc(N[C@@H]3CC[C@@H](N(C)C)[C@H](F)C3)nc21` (stereo in doubt) [Compound 168B, N-(4-(2-((4-(Dimethylamino)-3-fluorocyclohexyl)amino)-8-isopropyl-7-oxo-7,8-dihydropteridin-6-yl)-2,6-difluorophenyl)-3,3,3-trifluoropropane-1-sulfonamide], the IC50 came to 0.23 nM.

Take `CC(C)n1c(=O)c(-c2ccc(NS(=O)(=O)CCC(F)(F)F)c(F)c2)nc2cnc(N[C@H]3CC[C@H](N(C)C)[C@@H](F)C3)nc21` (stereo in doubt) [Compound 179A, N-(4-(2-((4-(Dimethylamino)-3-fluorocyclohexyl)amino)-8-isopropyl-7-oxo-7,8-dihydropteridin-6-yl)-2-fluorophenyl)-3,3,3-trifluoropropane-1-sulfonamide]: the IC50 came to 0.22 nM. `CC(C)n1c(=O)c(-c2ccc(NS(=O)(=O)CCC(F)(F)F)c(F)c2)nc2cnc(N[C@@H]3CC[C@@H](N(C)C)[C@H](F)C3)nc21` (stereo in doubt) [Compound 179B, N-(4-(2-((4-(Dimethylamino)-3-fluorocyclohexyl)amino)-8-isopropyl-7-oxo-7,8-dihydropteridin-6-yl)-2-fluorophenyl)-3,3,3-trifluoropropane-1-sulfonamide] showed an IC50 of 0.15 nM. The same measure for `CC(C)n1c(=O)c(-c2ccc(NS(=O)(=O)Cc3ccc(F)cc3)c(F)c2)nc2cnc(N[C@@H]3CC[C@@H](N(C)C)[C@H](F)C3)nc21` (stereo in doubt) [Compound 181A, N-(4-(2-((4-(Dimethylamino)-3-fluorocyclohexyl)amino)-8-isopropyl-7-oxo-7,8-dihydropteridin-6-yl)-2-fluorophenyl)-1-(4-fluorophenyl)methanesulfonamide]: 0.16 nM; for `CC(C)n1c(=O)c(-c2ccc(NS(=O)(=O)Cc3ccc(F)cc3)c(F)c2)nc2cnc(N[C@H]3CC[C@H](N(C)C)[C@@H](F)C3)nc21` (stereo in doubt) [Compound 181B, N-(4-(2-((4-(Dimethylamino)-3-fluorocyclohexyl)amino)-8-isopropyl-7-oxo-7,8-dihydropteridin-6-yl)-2-fluorophenyl)-1-(4-fluorophenyl)methanesulfonamide]: 0.15 nM. Next, `CC(C)n1c(=O)c(-c2ccc(NS(=O)(=O)Cc3ccccc3)c(F)c2)nc2cnc(N[C@H]3CC[C@H](N(C)C)[C@@H](F)C3)nc21` (stereo in doubt) [Compound 192A, N-(4-(2-((4-(Dimethylamino)-3-fluorocyclohexyl)amino)-8-isopropyl-7-oxo-7,8-dihydropteridin-6-yl)-2-fluorophenyl)-1-phenylmethanesulfonamide]: 0.11 nM; `CC(C)n1c(=O)c(-c2ccc(NS(=O)(=O)Cc3ccccc3)c(F)c2)nc2cnc(N[C@@H]3CC[C@@H](N(C)C)[C@H](F)C3)nc21` (stereo in doubt) [Compound 192B, N-(4-(2-((4-(Dimethylamino)-3-fluorocyclohexyl)amino)-8-isopropyl-7-oxo-7,8-dihydropteridin-6-yl)-2-fluorophenyl)-1-phenylmethanesulfonamide]: 0.09 nM; `CC(C)n1c(=O)c(-c2ccc(NS(=O)(=O)CC3CC(F)(F)C3)c(F)c2)nc2cnc(N[C@H]3CC[C@H](N(C)C)[C@@H](F)C3)nc21` (stereo in doubt) [Compound 193A, 1-(3,3-Difluorocyclobutyl)-N-(4-(2-((4-(dimethylamino)-3-fluorocyclohexyl)amino)-8-isopropyl-7-oxo-7,8-dihydropteridin-6-yl)-2-fluorophenyl)methanesulfonamide]: 0.2 nM. Next, `CC(C)n1c(=O)c(-c2ccc(NS(=O)(=O)CC3CC(F)(F)C3)c(F)c2)nc2cnc(N[C@@H]3CC[C@@H](N(C)C)[C@H](F)C3)nc21` (stereo in doubt) [Compound 193B, 1-(3,3-Difluorocyclobutyl)-N-(4-(2-((4-(dimethylamino)-3-fluorocyclohexyl)amino)-8-isopropyl-7-oxo-7,8-dihydropteridin-6-yl)-2-fluorophenyl)methanesulfonamide]: 0.17 nM; `Cn1c(=O)c(-c2ccc(NS(=O)(=O)Cc3ccccc3)c(F)c2F)cc2cnc(N[C@H]3CCCNC3)nc21` [Compound 1, (S)—N-(2,3-Difluoro-4-(8-methyl-7-oxo-2-(piperidin-3-ylamino)-7,8-dihydropyrido[2,3-d]pyrimidin-6-yl)phenyl)-1-phenylmethanesulfonamide]: 2.8 nM. In turn, `Cn1c(=O)c(-c2ccc(NS(=O)(=O)Cc3ccccc3)c(F)c2F)cc2cnc(N[C@@H]3CNC[C@@H](F)C3)nc21` [Compound 2, N-(2,3-Difluoro-4-(2-(((3S,5S)-5-fluoropiperidin-3-yl)amino)-8-methyl-7-oxo-7,8-dihydropyrido[2,3-d]pyrimidin-6-yl)phenyl)-1-phenylmethanesulfonamide] showed an IC50 of 2.1 nM. `CCn1c(=O)c(-c2ccc(NS(=O)(=O)Cc3ccccc3)c(F)c2F)cc2cnc(N[C@H]3CCCNC3)nc21` [Compound 3, (S)—N-(4-(8-Ethyl-7-oxo-2-(piperidin-3-ylamino)-7,8-dihydropyrido[2,3-d]pyrimidin-6-yl)-2,3-difluorophenyl)-1-phenylmethanesulfonamide]: the IC50 was found to be 0.68 nM. The same measure for `Cn1c(=O)c(-c2cccc3c(NS(=O)(=O)CCC(F)(F)F)c(F)ccc23)cc2cnc(N[C@H]3CCCNC3)nc21` [Compound 4, (S)-3,3,3-Trifluoro-N-(2-fluoro-5-(8-methyl-7-oxo-2-(piperidin-3-ylamino)-7,8-dihydropyrido[2,3-d]pyrimidin-6-yl)naphthalen-1-yl)propane-1-sulfonamide]: 5 nM. Next, `Cn1c(=O)c(-c2cccc3c(NS(=O)(=O)Cc4ccccc4)c(F)ccc23)cc2cnc(N[C@H]3CCCNC3)nc21` [Compound 5, (S)—N-(2-Fluoro-5-(8-methyl-7-oxo-2-(piperidin-3-ylamino)-7,8-dihydropyrido[2,3-d]pyrimidin-6-yl)naphthalen-1-yl)-1-phenylmethanesulfonamide]: 0.28 nM. With `Cn1c(=O)c(-c2cc(F)c(NS(=O)(=O)Cc3ccccc3)c3ccccc23)cc2cnc(N[C@H]3CCCNC3)nc21` [Compound 6, (S)—N-(2-Fluoro-4-(8-methyl-7-oxo-2-(piperidin-3-ylamino)-7,8-dihydropyrido[2,3-d]pyrimidin-6-yl)naphthalen-1-yl)-1-phenylmethanesulfonamide], the IC50 was found to be 0.89 nM. The same measure for `Cn1c(=O)c(-c2cc(F)c(NS(=O)(=O)CCC(F)(F)F)c3ccccc23)cc2cnc(N[C@H]3CCCNC3)nc21` [Compound 7, (S)-3,3,3-Trifluoro-N-(2-fluoro-4-(8-methyl-7-oxo-2-(piperidin-3-ylamino)-7,8-dihydropyrido[2,3-d]pyrimidin-6-yl)naphthalen-1-yl)propane-1-sulfonamide]: 5.9 nM; for `CCCS(=O)(=O)Nc1c(F)ccc2c(-c3cc4cnc(N[C@H]5CCCNC5)nc4n(C)c3=O)cccc12` [Compound 8, (S)—N-(2-Fluoro-5-(8-methyl-7-oxo-2-(piperidin-3-ylamino)-7,8-dihydropyrido[2,3-d]pyrimidin-6-yl)naphthalen-1-yl)propane-1-sulfonamide]: 36 nM; for `CC(C)n1c(=O)c(-c2ccc(NS(=O)(=O)Cc3ccccc3)c(F)c2F)cc2cnc(N[C@@H]3CNC[C@@H](F)C3)nc21` [Compound 9, N-(2,3-Difluoro-4-(2-(((3S,5S)-5-fluoropiperidin-3-yl)amino)-8-isopropyl-7-oxo-7,8-dihydropyrido[2,3-d]pyrimidin-6-yl)phenyl)-1-phenylmethanesulfonamide]: 0.28 nM. Next, `O=c1c(-c2ccc(NS(=O)(=O)Cc3ccccc3)c(F)c2F)cc2cnc(N[C@@H]3CNC[C@@H](F)C3)nc2n1C1CC1` [Compound 10, N-(4-(8-cyclopropyl-2-(((3S,5S)-5-fluoropiperidin-3-yl)amino)-7-oxo-7,8-dihydropyrido[2,3-d]pyrimidin-6-yl)-2,3-difluorophenyl)-1-phenylmethanesulfonamide]: 1.1 nM; `O=c1c(-c2ccc(NS(=O)(=O)Cc3ccccc3)c(F)c2F)cc2cnc(N[C@@H]3CNC[C@@H](F)C3)nc2n1CC(F)F` [Compound 11, N-(4-(8-(2,2-Difluoroethyl)-2-(((3S,5S)-5-fluoropiperidin-3-yl)amino)-7-oxo-7,8-dihydropyrido[2,3-d]pyrimidin-6-yl)-2,3-difluorophenyl)-1-phenylmethanesulfonamide]: 1.1 nM. Next, `CCn1c(=O)c(-c2ccc(NS(=O)(=O)Cc3ccccc3)c(F)c2F)cc2cnc(N[C@@H]3CNC[C@@H](F)C3)nc21` [Compound 12, N-(4-(8-Ethyl-2-(((3S,5S)-5-fluoropiperidin-3-yl)amino)-7-oxo-7,8-dihydropyrido[2,3-d]pyrimidin-6-yl)-2,3-difluorophenyl)-1-phenylmethanesulfonamide]: 0.57 nM; `CCCS(=O)(=O)Nc1ccc(-c2cc3cnc(N[C@@H]4CNC[C@@H](F)C4)nc3n(CC)c2=O)c(F)c1F` [Compound 13, N-(4-(8-Ethyl-2-(((3S,5S)-5-fluoropiperidin-3-yl)amino)-7-oxo-7,8-dihydropyrido[2,3-d]pyrimidin-6-yl)-2,3-difluorophenyl)propane-1-sulfonamide]: 8.3 nM.

The record behind these values is patent publication US12344603B2 (Genentech, Inc., priority 2020, dated 2025).
